In US9540691B2, “Assays and methods for selecting a treatment regimen for a subject with depression” (THE GENERAL HOSPITAL CORPORATION, priority 2011, dated 2017):
Read-outs that look alike come from different tables or passages of the source.

Test system: MDD patients carrying the indicated conditions
Settings: Phase I, with SSRI
Experimental: Folate levels are classified as either low (<=2.5 ng/ml) or normal; and homocysteine levels as either normal or elevated (>=[…]). The presence or absence of at least one […] allele for the MTHFR gene are entered as a dichotomous variable (present or absent). […] Using folate as an example predicator, the presence or absence of a low serum-folate level along with treatment assignment can be entered in a 2×2, factorial ANOVA, using depression improvement scores (baseline minus endpoint HAM-D-17 scores) as the dependant variable. […] Similar analyses (i.e. separate 2×2 ANOVA's) can be performed substituting the presence of low folate levels for the presence of other predictors as described herein. Similarly, the effect of other predictors can be indicated by the interaction term representing the potential modulating influence of those variables.
Particularly, specific genetic and biomarkers that were assessed include the following: • (a) BMI calculation of at least about 30 kg/m^2; • (b) an expression ratio of SAM/SAH smaller than 2.8 (e.g., 2.71) as measured in a plasma sample; • (c) a level of 4-HNE no less than 3.28 μg/mL (as measured in a plasma sample); • (d) presence of rare variants CT or TT at position 677 of SEQ ID NO: 1 corresponding to a portion of a genomic nucleic acid sequence of methylenetetrahydrofolate reductase (MTHFR) (abbreviated as “MTHFR 677” below); • (e) presence of rare variants AG or GG at position 2756 of SEQ ID NO: 2 corresponding to a portion of genomic nucleic acid sequence of methionine synthase (MTR) (abbreviated as “MTR 2756” below); and • (f) presence of rare variants AG or GG at position 66 of SEQ ID NO: 3 corresponding to a portion of genomic nucleic acid sequence of methionine synthase reductase (MTRR) (abbreviated as “MTRR 66” below).
The efficacy effect is determined by measuring the mean change in the HAMD-17 score and HAMD-28 score by the end of Phase I and Phase II, as compared to the baseline.

CN1c2c(nc(N)[nH]c2=O)NC[C@@H]1CNc1ccc(C(=O)N[C@@H](CCC(=O)O)C(=O)O)cc1 [6(S)-5-MTHF, 6(S)-5-methyltetrahydrofolate]
Effect, change in HAMD-17 score (25 =< BMI < 30 kg/m^2 (18, 10)): 2.600 | Effect, change in HAMD-28 score (25 =< BMI < 30 kg/m^2 (18, 10)): 2.602 | Effect, change in HAMD-17 score (BMI < 25 (14, 7)): 1.576 | Effect, change in HAMD-28 score (BMI < 25 (14, 7)): 0.909 | Effect, change in HAMD-17 score (BMI < 30 kg/m^2 and HNE-His < median (19, 9)): 3.771 | Effect, change in HAMD-28 score (BMI < 30 kg/m^2 and HNE-His < median): 4.606 | Effect, change in HAMD-17 score (BMI < 30 kg/m^2 and SAM/SAH >= median (16,8)): 4.333 | Effect, change in HAMD-28 score (BMI < 30 kg/m^2 and SAM/SAH >= median): 4.333 | Effect, change in HAMD-17 score (BMI >= 30 kg/m^2 (40,21)): −6.414 | Effect, change in HAMD-28 score (BMI >= 30 kg/m^2 (40,21)): −6.677 | Effect, change in HAMD-17 score (BMI >= 30 kg/m^2 and HNE-His >= median (23, 11)): −6.569 | Effect, change in HAMD-28 score (BMI >= 30 kg/m^2 and HNE-His >= median): −6.510 | Effect, change in HAMD-17 score (BMI >= 30 kg/m^2 and SAM/SAH < median (21,9)): −5.611 | Effect, change in HAMD-28 score (BMI >= 30 kg/m^2 and SAM/SAH < median = 2.71 (plasma sample)): −6.306 | Effect, change in HAMD-17 score (MTHFR 677 CC and BMI < 30 kg/m^2 (17,8)): 4.500 | Effect, change in HAMD-28 score (MTHFR 677 CC and BMI < 30 kg/m^2): 2.769 | Effect, change in HAMD-17 score (MTHFR 677 CC and HNE-His < median (20,11)): −1.471 | Effect, change in HAMD-28 score (MTHFR 677 CC and HNE-His < median = 3.28 (plasma sample)): −2.821 | Effect, change in HAMD-17 score (MTHFR 677 CC and MTR 2756 AA (29,13)): −0.700 | Effect, change in HAMD-28 score (MTHFR 677 CC and MTR 2756 AA): −0.192 | Effect, change in HAMD-17 score (MTHFR 677 CT or TT and BMI >= 30 kg/m^2 (13,6)): −8.738 | Effect, change in HAMD-28 score (MTHFR 677 CT or TT and BMI >= 30 kg/m^2): −9.857 | Effect, change in HAMD-17 score (MTHFR 677 CT or TT and HNE-His >= median (11,6)): −7.143 | Effect, change in HAMD-28 score (MTHFR 677 CT or TT and HNE-His >= median): −6.929 | Effect, change in HAMD-17 score (MTHFR 677 CT or TT and MTR 2756 AG or GG (8,4)): −13.47 | Effect, change in HAMD-28 score (MTHFR 677 CT or TT and MTR 2756 AG or GG): −18.00 | Effect, change in HAMD-17 score (MTR 2756 AA (45,21)): −0.621 | Effect, change in HAMD-17 score (MTR 2756 AA and BMI < 30 kg/m^2 (17,7)): 4.476 | Effect, change in HAMD-28 score (MTR 2756 AA and BMI < 30 kg/m^2): 5.524 | Effect, change in HAMD-17 score (MTR 2756 AA and HNE-His < median (26,13)): 0.306 | Effect, change in HAMD-28 score (MTR 2756 AA and HNE-His < median): 0.639 | Effect, change in HAMD-17 score (MTR 2756 AA and MTRR 66 AA (11,5)): 3.125 | Effect, change in HAMD-17 score (MTR 2756 AA and MTRR 66 AA and HNE-His < median (6,4)): 3.000 | Effect, change in HAMD-28 score (MTR 2756 AA and MTRR 66 AA and HNE-His < median = 3.28 (plasma sample)): 4.200 | Effect, change in HAMD-17 score (MTR 2756 AA and MTRR 66 AA and SAM/SAH >= median (6,3)): −0.400 | Effect, change in HAMD-28 score (MTR 2756 AA and MTRR 66 AA and SAM/SAH >= median): −1.000 | Effect, change in HAMD-28 score (MTR 2756 AA and MTRR 66 AA): 5.000 | Effect, change in HAMD-17 score (MTR 2756 AA and SAM/SAH >= median (24,12)): −1.556 | Effect, change in HAMD-28 score (MTR 2756 AA and SAM/SAH >= median): −1.278 | Effect, change in HAMD-28 score (MTR 2756 AA): 0.409 | Effect, change in HAMD-17 score (MTR 2756 AG or GG and BMI >= 30 kg/m^2 (10,5)): −12.905 | Effect, change in HAMD-28 score (MTR 2756 AG or GG and BMI >= 30 kg/m^2): −18.762 | Effect, change in HAMD-17 score (MTR 2756 AG or GG and HNE-His >= median (13,7)): −7.125 | Effect, change in HAMD-28 score (MTR 2756 AG or GG and HNE-His >= median = 3.28 (plasma sample)): −9.950 | Effect, change in HAMD-17 score (MTR 2756 AG or GG and MTRR 66 AG or GG (15,7)): −6.900 | Effect, change in HAMD-17 score (MTR 2756 AG or GG and MTRR 66 AG or GG and BMI >= 30 kg/m^2 (8,4)): −13.667 | Effect, change in HAMD-28 score (MTR 2756 AG or GG and MTRR 66 AG or GG and BMI >= 30 kg/m^2): −18.833 | Effect, change in HAMD-17 score (MTR 2756 AG or GG and MTRR 66 AG or GG and HNE-His >= median (10,4)): −7.200 | Effect, change in HAMD-28 score (MTR 2756 AG or GG and MTRR 66 AG or GG and HNE-His >= median): −9.800 | Effect, change in HAMD-17 score (MTR 2756 AG or GG and MTRR 66 AG or GG and SAM/SAH < median (8,3)): −9.000 | Effect, change in HAMD-28 score (MTR 2756 AG or GG and MTRR 66 AG or GG and SAM/SAH < median = 2.71 (plasma sample)): −12.741 | Effect, change in HAMD-28 score (MTR 2756 AG or GG and MTRR 66 AG or GG): −9.996 | Effect, change in HAMD-17 score (MTR 2756 AG or GG and SAM/SAH < median (10,4)): −9.800 | Effect, change in HAMD-28 score (MTR 2756 AG or GG and SAM/SAH < median = 2.71 (plasma sample)): −14.993 | Effect, change in HAMD-17 score (MTR 2756 AG/GG (20,11)): −7.143 | Effect, change in HAMD-28 score (MTR 2756 AG/GG): −10.926
